The test system of the test is parasites (ring stage, in human red blood cell culture). Put plainly: Parasite LDH growth assay (antiparasite potency, Parasite Assay). Type of test: cell-based, Plasmodium falciparum. The following applies: 0.7% rings, 2% haematocrit, 72 hours at 37° C., LDH readout of parasite growth. In outline: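 Growth was read by an LDH assay after a freeze–thaw cycle (−80 °C overnight, 4 h thaw at RT). Before that, parasites grew with compound for 72 h at 37 °C under gassed, humidified conditions. The input was a ring-stage culture adjusted to 0.7% parasitemia and 2% haematocrit in serum (5%)/albumax (0.5%)-supplemented RPMI-Hepes.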

Setting [1] is: Plasmodium falciparum, Erythrocyte, 72 h.

Each structure is given as a SMILES string.

Consider `CCC1(CC)CC(=O)N([C@H]2c3cc(C(=O)N[C@@H]4c5ccccc5OC(C)(C)[C@H]4O)ccc3OC[C@@H]2C)C(=N)N1` [Example 240, (3R,4R)-4-(4,4-diethyl-2-imino-6-oxo-hexahydropyrimidin-1-yl)-N-[(3S,4R)-3-hydroxy-2,2-dimethyl-chroman-4-yl]-3-methyl-chromane-6-carboxamide], for which, under setting [1], the EC50 (usually the concentration that produces a half-maximal response) worked out at 0.6 nM. On the same count and under the same terms, the result for `CCC1(CC)CC(=O)N([C@H]2c3cc(C(=O)N[C@@H]4c5ccccc5OC(C)(C)[C@H]4O)ccc3OC[C@H]2C)C(=N)N1` [Example 241, (3S,4R)-4-(4,4-diethyl-2-imino-6-oxo-hexahydropyrimidin-1-yl)-N-[(3S,4R)-3-hydroxy-2,2-dimethyl-chroman-4-yl]-3-methyl-chromane-6-carboxamide] reads 0.4 nM. Compound `CC[C@]1(C)CC(=O)N(C2c3cc(C(=O)N[C@@H]4c5ccccc5OC(C)(C)[C@H]4O)ccc3OCC2(C)C)C(=N)N1` (stereo partly drawn) [Example 243, 4-[(4R)-4-ethyl-2-imino-4-methyl-6-oxo-hexahydropyrimidin-1-yl]-N-[(3S,4R)-3-hydroxy-2,2-dimethyl-chroman-4-yl]-3,3-dimethyl-chromane-6-carboxamide] yielded an EC50 under setting [1] of 6.1 nM. Still for that read-out and setting: under `CCC1(CC)CC(=O)N(C2c3cc(C(=O)N[C@@H]4c5ccccc5C[C@H]4O)ccc3OCC2(C)COC)C(=N)N1` (stereo partly drawn) [Example 244, 4-(4,4-diethyl-2-imino-6-oxo-hexahydropyrimidin-1-yl)-N-[(1R,2R)-2-hydroxyindan-1-yl]-3-(methoxymethyl)-3-methyl-chromane-6-carboxamide] stands 7.8 nM; under `CCC1(CC)CC(=O)N([C@H]2c3cc(C(=O)N[C@@H]4c5ccccc5OC(C)(C)[C@H]4O)ccc3OC2(C)C)C(=N)N1` [Example 245, (3S)-3-(4,4-diethyl-2-imino-6-oxo-hexahydropyrimidin-1-yl)-N-[(3S,4R)-3-hydroxy-2,2-dimethyl-chroman-4-yl]-2,2-dimethyl-3H-benzofuran-5-carboxamide], 0.8 nM. On the same count and under the same terms, the result for `CCC1(CC)CC(=O)N([C@@H]2C[C@@H](C)Oc3ccc(C(=O)N[C@@H]4c5ccccc5OC(C)(C)[C@H]4O)cc32)C(=N)N1` [Example 246, (2R,4R)-4-(4,4-diethyl-2-imino-6-oxo-hexahydropyrimidin-1-yl)-N-[(3S,4R)-3-hydroxy-2,2-dimethyl-chroman-4-yl]-2-methyl-chromane-6-carboxamide] reads 2 nM; that for `CCC1(CC)CC(=O)N([C@H]2c3cc(C(=O)N[C@@H]4c5ccccc5OC[C@@]4(C)O)ccc3CC[C@@H]2OC)C(=N)N1` [Example 247, (3S,4S)-4-(4,4-diethyl-2-imino-6-oxo-hexahydropyrimidin-1-yl)-N-[(3S,4R)-3-hydroxy-3-methyl-chroman-4-yl]-3-methoxy-tetralin-6-carboxamide], 4.5 nM; that for `CCC1(CC)CC(=O)N([C@@H]2CCCOc3ccc(C(=O)N[C@@H]4c5ccccc5OC(C)(C)[C@H]4O)cc32)C(=N)N1` [Example 248, (5R)-5-(4,4-diethyl-2-imino-6-oxo-hexahydropyrimidin-1-yl)-N-[(3S,4R)-3-hydroxy-2,2-dimethyl-chroman-4-yl]-2,3,4,5-tetrahydro-1-benzoxepine-7-carboxamide], 0.8 nM.

Compound `CCC1(CC)CC(=O)N([C@H]2c3cc(C(=O)N[C@@H]4c5ccccc5CC[C@H]4O)ccc3O[C@@]2(C)COC)C(=N)N1` [Example 249, (2R,3S)-3-(4,4-diethyl-2-imino-6-oxo-hexahydropyrimidin-1-yl)-N-[(1R,2R)-2-hydroxytetralin-1-yl]-2-(methoxymethyl)-2-methyl-3H-benzofuran-5-carboxamide] displayed an EC50 under setting [1] of 1.1 nM. On the same count and under the same terms, under `CCC1(CC)CC(=O)N([C@H]2c3cc(C(=O)N[C@H]4c5ccccc5CC[C@@H]4O)ccc3O[C@@]2(C)COC)C(=N)N1` [Example 250, (2R,3S)-3-(4,4-diethyl-2-imino-6-oxo-hexahydropyrimidin-1-yl)-N-[(1S,2S)-2-hydroxytetralin-1-yl]-2-(methoxymethyl)-2-methyl-3H-benzofuran-5-carboxamide] stands 219 nM; under `CC[C@]1(C)CC(=O)N([C@H]2c3cc(C(=O)N[C@@H]4c5ccccc5OC[C@@]4(C)O)ccc3OC[C@@H]2COC)C(=N)N1` [Example 252, (3S,4R)-4-[(4R)-4-ethyl-2-imino-4-methyl-6-oxo-hexahydropyrimidin-1-yl]-N-[(3S,4R)-3-hydroxy-3-methyl-chroman-4-yl]-3-(methoxymethyl)chromane-6-carboxamide], 2.1 nM; under `CCC1(CC)CC(=O)N([C@H]2c3cc(C(=O)N[C@@H]4c5ccccc5OC[C@]4(C)O)ccc3OC[C@@H]2OC)C(=N)N1` [Example 253, (3R,4S)-4-(4,4-diethyl-2-imino-6-oxo-hexahydropyrimidin-1-yl)-N-[(3R,4R)-3-hydroxy-3-methyl-chroman-4-yl]-3-methoxy-chromane-6-carboxamide], 4.3 nM.

`CCC1(CC)CC(=O)N([C@H]2c3cc(C(=O)N[C@@H]4c5ccccc5OC[C@@]4(C)O)ccc3OC[C@@H]2OC)C(=N)N1` [Example 254, (3R,4S)-4-(4,4-diethyl-2-imino-6-oxo-hexahydropyrimidin-1-yl)-N-[(3S,4R)-3-hydroxy-3-methyl-chroman-4-yl]-3-methoxy-chromane-6-carboxamide] registered an EC50 under setting [1] of 3.4 nM.

As for `CC[C@]1(C)CC(=O)N([C@H]2c3cc(C(=O)N[C@@H]4c5ccccc5OC(C)(C)[C@H]4O)ccc3OC[C@@H]2OC)C(=N)N1` [Example 255, (3R,4S)-4-[(4R)-4-ethyl-2-imino-4-methyl-6-oxo-hexahydropyrimidin-1-yl]-N-[(3S,4R)-3-hydroxy-2,2-dimethyl-chroman-4-yl]-3-methoxy-chromane-6-carboxamide], under setting [1], the EC50 was 3.3 nM. In the case of `COCC1(C)Oc2ccc(C(=O)N[C@@H]3c4ccccc4OC(C)(C)[C@H]3O)cc2C1N1C(=N)NC(C)(C)CC1=O` (stereo partly drawn) [Example 256, N-[(3S,4R)-3-hydroxy-2,2-dimethyl-chroman-4-yl]-3-(2-imino-4,4-dimethyl-6-oxo-hexahydropyrimidin-1-yl)-2-(methoxymethyl)-2-methyl-3H-benzofuran-5-carboxamide], the EC50 was found to be 8.9 nM. As to `COCC1(C)Oc2ccc(C(=O)N[C@@H]3c4ccccc4OC(C)(C)[C@H]3O)cc2C1N1C(=N)NC(C)(C)CC1=O` (stereo partly drawn) [Example 257, N-[(3S,4R)-3-hydroxy-2,2-dimethyl-chroman-4-yl]-3-(2-imino-4,4-dimethyl-6-oxo-hexahydropyrimidin-1-yl)-2-(methoxymethyl)-2-methyl-3H-benzofuran-5-carboxamide], the EC50 is 189 nM. `CCC1(CC)CC(=O)N([C@@H]2CCS(=O)(=O)c3ccc(C(=O)N[C@@H]4c5ccccc5C[C@@]4(C)O)cc32)C(=N)N1` [Example 260, (4R)-4-(4,4-diethyl-2-imino-6-oxo-hexahydropyrimidin-1-yl)-N-[(1R,2R)-2-hydroxy-2-methyl-indan-1-yl]-1,1-dioxo-3,4-dihydro-2H-thiochromene-6-carboxamide]: under setting [1], a half-maximal effect (EC50) was put at 8.2 nM. Consider `CCC1(CC)CC(=O)N([C@H]2CCS(=O)(=O)c3ccc(C(=O)N[C@@H]4c5ccccc5C[C@@]4(C)O)cc32)C(=N)N1` [Example 261, (4S)-4-(4,4-diethyl-2-imino-6-oxo-hexahydropyrimidin-1-yl)-N-[(1R,2R)-2-hydroxy-2-methyl-indan-1-yl]-1,1-dioxo-3,4-dihydro-2H-thiochromene-6-carboxamide], for which, under setting [1], the EC50 stood at 133 nM. As to `CCC1(CC)CC(=O)N([C@@H]2CCS(=O)(=O)c3ccc(C(=O)N[C@@H]4c5ccccc5C[C@]4(C)O)cc32)C(=N)N1` [Example 262, (4R)-4-(4,4-diethyl-2-imino-6-oxo-hexahydropyrimidin-1-yl)-N-[(1R,2S)-2-hydroxy-2-methyl-indan-1-yl]-1,1-dioxo-3,4-dihydro-2H-thiochromene-6-carboxamide], the concentration giving a half-maximal response (EC50) under setting [1] came to 7.4 nM. Still for that read-out and setting: under `CCC1(CC)CC(=O)N([C@H]2CCS(=O)(=O)c3ccc(C(=O)N[C@@H]4c5ccccc5C[C@]4(C)O)cc32)C(=N)N1` [Example 263, (4S)-4-(4,4-diethyl-2-imino-6-oxo-hexahydropyrimidin-1-yl)-N-[(1R,2S)-2-hydroxy-2-methyl-indan-1-yl]-1,1-dioxo-3,4-dihydro-2H-thiochromene-6-carboxamide] stands 74.8 nM; under `CCC1(CC)CC(=O)N([C@@H]2CCOc3ccc(C(=O)NC(CCc4ccccc4)c4ccccc4)cc32)C(=N)N1` (stereo partly drawn) [Example 264, (4R)-4-(4,4-diethyl-2-imino-6-oxo-hexahydropyrimidin-1-yl)-N-(1,3-diphenylpropyl)chromane-6-carboxamide], 3.3 nM; under `CC1(C)CC(=O)N([C@@H]2CCS(=O)(=O)c3ccc(C(=O)N[C@@H]4c5ccccc5OC(C)(C)[C@H]4O)cc32)C(=N)N1` [Example 265, (4R)-N-[(3S,4R)-3-hydroxy-2,2-dimethyl-chroman-4-yl]-4-(2-imino-4,4-dimethyl-6-oxo-hexahydropyrimidin-1-yl)-1,1-dioxo-3,4-dihydro-2H-thiochromene-6-carboxamide], 31.1 nM. Still for that read-out and setting: the result for `CCC1(CC)CC(=O)N([C@@H]2CCOc3ccc(C(=O)N[C@@H]4c5cc(Cl)ccc5OC[C@@]4(C)O)cc32)C(=N)N1` [Example 266, (4R)-N-[(3S,4R)-6-chloro-3-hydroxy-3-methyl-chroman-4-yl]-4-(4,4-diethyl-2-imino-6-oxo-hexahydropyrimidin-1-yl)chromane-6-carboxamide] reads 2.6 nM; that for `CC[C@]1(C)CC(=O)N([C@@H]2CCOc3ccc(C(=O)N[C@@H]4C[C@@H](COC(F)F)Oc5ccccc54)cc32)C(=N)N1` [Example 267, (4R)-N-[(2S,4R)-2-(difluoromethoxymethyl)chro-man-4-yl]-4-[(4R)-4-ethyl-2-imino-4-methyl-6-oxo-hexahydropyrimidin-1-yl]chromane-6-carboxamide], 24 nM.
